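Cells were grown in 96-well plates and exposed to each compound for 48 hours at five concentrations; endpoints were interpolated linearly between bracketing concentrations, or set to the highest concentration if not reached. GI50 = concentration required for 50% inhibition of growth. TGI: concentration producing complete growth inhibition.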

Some test systems named below: MOLT-4 leukemia; UACC-62 melanoma; MDA-N; COLO 205 colon; SK-MEL-28 melanoma; A549 NSCLC; NCI-H460 lung; ACHN renal; NCI-H23 lung.
Experiment in all cases: NCI anticancer screen, dose series, 48 h

For the molecule `OC(c1nc2ccccc2[nH]1)C(O)C(O)C(O)c1nc2ccccc2[nH]1` (stereo not given), the TGI with MOLT-4 leukemia, in the experiment with UACC-62 melanoma, with MDA-N, with COLO 205 colon, in the experiment on SK-MEL-28 melanoma and in the experiment with A549 NSCLC was more than 100 µM throughout. The TGI in the experiment with NCI-H460 lung and with ACHN renal was more than 100 µM each time.

For `COc1cc2c3c(n(C)c(=O)c2cc1OC)-c1cc2c(cc1/C3=C\CCCN)OCO2`, the GI50 with MOLT-4 leukemia was 0.325 µM; in the experiment with UACC-62 melanoma, 2.13 µM; in the experiment on COLO 205 colon it was 7.67 µM; in the experiment with SK-MEL-28 melanoma, 18.8 µM; with NCI-H23 lung, 8.07 µM; in the experiment on A549 NSCLC, 4.3 µM. Besides, the GI50 in the experiment on NCI-H460 lung was 2.65 µM; in the experiment on ACHN renal, 2.09 µM. In addition, the TGI in the experiment on MOLT-4 leukemia is 3.64 µM; with UACC-62 melanoma it was 13.7 µM; with COLO 205 colon, more than 100 µM; in the experiment with SK-MEL-28 melanoma, more than 100 µM; in the experiment with NCI-H23 lung, more than 100 µM; in the experiment with A549 NSCLC, more than 100 µM. The TGI with NCI-H460 lung is more than 100 µM; with ACHN renal it was 8.64 µM.

In the case of `COc1cc(/C=C/c2cc(O)c(C(C)=O)c(O)c2)cc2c1O[C@]1(C)CC[C@@H](O)C(C)(C)[C@H]1C2`, the GI50 in the experiment with MOLT-4 leukemia is 3.22 µM; with UACC-62 melanoma, 2.89 µM; with COLO 205 colon, 16.1 µM; in the experiment on SK-MEL-28 melanoma, 4.17 µM; with NCI-H23 lung, 10.7 µM; in the experiment with A549 NSCLC it was 8.54 µM. In addition, the GI50 was 6.26 µM in the experiment with NCI-H460 lung and 10.5 µM with ACHN renal. The TGI is 34.7 µM in the experiment with MOLT-4 leukemia; 11.5 µM in the experiment with UACC-62 melanoma; 68.3 µM in the experiment on COLO 205 colon; 26.2 µM with SK-MEL-28 melanoma; 34.5 µM with NCI-H23 lung; more than 100 µM with A549 NSCLC. Besides, the results for the TGI with NCI-H460 lung and in the experiment with ACHN renal were 57.5 µM and 78.3 µM, respectively.

For the molecule `Cc1cccc2c1CC1(C2)Cc2c(C)cccc2C1=O` (stereo not given), the TGI was 30.2 µM in the experiment on MOLT-4 leukemia; 61.8 µM with MDA-N; 29.7 µM in the experiment on COLO 205 colon; 56.5 µM in the experiment with SK-MEL-28 melanoma; more than 100 µM in the experiment with NCI-H23 lung; more than 100 µM with A549 NSCLC. Moreover, the TGI in the experiment with NCI-H460 lung came to 83.2 µM; in the experiment on ACHN renal, 84.3 µM.

As for `Cc1c2c(nn1-c1ccc(S(=O)(=O)/N=C3\SCCC(=O)N3c3ccccc3)cc1)-c1ccccc1CC2`, the GI50 in the experiment with MOLT-4 leukemia, with UACC-62 melanoma, in the experiment on COLO 205 colon, in the experiment on SK-MEL-28 melanoma, with NCI-H23 lung and in the experiment on A549 NSCLC was more than 100 µM each time. The GI50 in the experiment on NCI-H460 lung and in the experiment on ACHN renal was more than 100 µM throughout. The TGI in the experiment with MOLT-4 leukemia, in the experiment on UACC-62 melanoma, in the experiment on COLO 205 colon, with SK-MEL-28 melanoma, in the experiment with NCI-H23 lung and in the experiment with A549 NSCLC was more than 100 µM each time. The TGI in the experiment with NCI-H460 lung and with ACHN renal was more than 100 µM each time.

Turning to `C[C@@H]1CCC2[C@@H](C)[C@@H](OCC(CO[C@H]3OC4O[C@@]5(C)CC[C@H]6[C@H](C)CCC([C@H]3C)[C@@]46OO5)OC(=O)CCC(=O)O)OC3O[C@@]4(C)CC[C@@H]1[C@]32OO4` (stereo not given in full), the GI50 is 0.537 µM with MOLT-4 leukemia; 0.0765 µM in the experiment on UACC-62 melanoma; less than 0.01 µM with COLO 205 colon; 11.4 µM in the experiment on SK-MEL-28 melanoma; 0.0101 µM with NCI-H23 lung; 0.971 µM in the experiment on A549 NSCLC. Moreover, the GI50 in the experiment with NCI-H460 lung was less than 0.0183 µM; with ACHN renal it was 0.126 µM. For the same molecule, the TGI in the experiment with MOLT-4 leukemia is more than 48.7 µM; in the experiment with UACC-62 melanoma, 21.2 µM; in the experiment with COLO 205 colon, 12.5 µM; in the experiment on SK-MEL-28 melanoma it was more than 47.4 µM; in the experiment with NCI-H23 lung, 11.3 µM; in the experiment on A549 NSCLC, 32.6 µM. In addition, the TGI with NCI-H460 lung was determined as 15.8 µM; in the experiment on ACHN renal, 17.5 µM.

As for `C=C1C(=O)O[C@H]2[C@H]1CC/C(COC(=O)c1c[nH]c3ccccc13)=C\CC[C@@]1(C)O[C@@H]21`, the GI50 was 0.282 µM in the experiment with MOLT-4 leukemia; 0.185 µM with UACC-62 melanoma; 0.244 µM in the experiment on COLO 205 colon; 0.367 µM in the experiment on SK-MEL-28 melanoma; 1.29 µM in the experiment on NCI-H23 lung; 1.5 µM in the experiment on A549 NSCLC. The GI50 with NCI-H460 lung is 1.1 µM; in the experiment with ACHN renal, 0.215 µM. Besides, the TGI in the experiment with MOLT-4 leukemia turned out to be 1.45 µM; in the experiment on UACC-62 melanoma it was 0.388 µM; in the experiment with COLO 205 colon, 0.663 µM; in the experiment with SK-MEL-28 melanoma, 1.41 µM; in the experiment with NCI-H23 lung, 3.76 µM; with A549 NSCLC, 3.3 µM. Moreover, the figures for the TGI with NCI-H460 lung and with ACHN renal were 3.18 µM and 0.592 µM, respectively.

`O=C1NCC2(CCN(CCCC3(c4ccc(F)cc4)OCCO3)CC2)N1c1ccccc1`: the TGI in the experiment on MOLT-4 leukemia, in the experiment with UACC-62 melanoma, with MDA-N, in the experiment on COLO 205 colon, in the experiment on SK-MEL-28 melanoma and with NCI-H23 lung was more than 100 µM each time. The TGI with A549 NSCLC, with NCI-H460 lung and in the experiment on ACHN renal was more than 100 µM throughout.

On to `CCN(CC)/C(SCc1ccccc1)=C(\C(Cl)=C(Cl)Cl)[N+](=O)[O-]`, for which the TGI with MOLT-4 leukemia is 44.5 µM; in the experiment with UACC-62 melanoma, 18.1 µM; in the experiment on MDA-N, 33.8 µM; in the experiment on COLO 205 colon, 38.9 µM; in the experiment on SK-MEL-28 melanoma, 33.9 µM; in the experiment on NCI-H23 lung, 49.6 µM. Also, the TGI came out at 38.1 µM in the experiment with A549 NSCLC, 55.1 µM in the experiment on NCI-H460 lung and 29.8 µM in the experiment on ACHN renal.

In the case of `C=C1NC(=O)C(C(C)CC)NC(=O)C2CSCC(NC(=O)CCC(=O)O)C(=O)NC(Cc3ccccc3)C(=O)NC(C)C(=O)NC(CC(C)CC)C(=O)NC(C(=O)NC(Cc3ccccc3)C(=O)N3CCCC3C(=O)N2)C(C)OC(=O)C(CO)NC(=O)C(C(O)COC)N(C)C(=O)C(C(C)C)NC(=O)C(CC(C)CC)NC1=O` (stereo not given), the GI50 was 0.0552 µM with MOLT-4 leukemia; 0.00311 µM in the experiment on UACC-62 melanoma; 0.0129 µM in the experiment on COLO 205 colon; more than 6 µM in the experiment with SK-MEL-28 melanoma; 0.1 µM in the experiment on NCI-H23 lung; 0.0268 µM in the experiment with A549 NSCLC. The GI50 in the experiment on NCI-H460 lung was 0.00439 µM; with ACHN renal, 0.0553 µM. Besides, the TGI in the experiment with MOLT-4 leukemia was more than 6 µM; in the experiment on UACC-62 melanoma, more than 6 µM; with COLO 205 colon it was 0.0557 µM; in the experiment on SK-MEL-28 melanoma, more than 6 µM; with NCI-H23 lung, more than 6 µM; in the experiment on A549 NSCLC, more than 6 µM. The TGI in the experiment with NCI-H460 lung and in the experiment with ACHN renal was more than 6 µM in each case.

For the origin of these results see PubChem BioAssay (NCI).
